The test system of one experiment is A549 cells. Briefly: Inhibition of PGE2 production in A549 cell (IL-1β stimulated). The experiment is classed as cell-based, human. The following applies: Homo sapiens, A549, 24 h, IL-1β 5 ng/well, PGE2 in culture medium. The method, then:
Human A549 cells were seeded onto a 96-well plate at 2×10^4 cells/100 μL per well and allowed to incubate overnight. After removing the culture medium and washing with phosphate buffered saline, the culture medium was replaced by RPMI culture medium with 3% FBS containing a DMSO solution containing test compound or DMSO alone (such that DMSO final concentration would be […] in each). After incubation for 60 minutes, IL-1β (5 ng/well) was added and incubated at 37° C. for 24 hours. Then, PGE2 in the culture medium was measured using HTRF kit (Cisbio International, catalogue #62P2APEC), and PGF2α in the culture medium was measured using EIA kit (Cayman Chemical Company, catalogue #516011). The solution free of test compound was used as positive control, and the solution free of test compound and IL-1β was used as negative control. 100% activity was defined as PGE2 and PGF2α production in the positive control minus PGE2 and PGF2α production in the negative control. IC50 value was calculated by standard method.

For the next experiment, the target named is human mPGES-1 (Homo sapiens (Human), UniProt O14684). Briefly: mPGES-1 inhibiting activity (microsome fractions, PGE2 by HTRF). To be noted: microsomes from CHO-K1 cells transfected with human mPGES-1; PGH2 1 μM, 4° C., 60 seconds; read-out: mPGES-1 Inhibition IC50. The experiment is classed as biochemical. The method, then: mPGES-1 microsome fractions were prepared from CHO-K1 cells transiently transfected with plasmid encoding the human mPGES-1cDNA. Microsomes were diluted with potassium phosphate buffer containing reduced glutathione (pH7.4), and DMSO containing test compound or DMSO alone was added (such that DMSO final concentration would be 1% in each) and incubated at 4° C. for 20 minutes. Then, the enzymatic reactions were initiated by the addition of PGH2 substrate (final concentration 1 μM) and incubated at 4° C. for 60 seconds. The reaction was terminated by the addition of a citrate solution (final citrate concentration 50 mM) containing ferric chloride (final concentration 1 mg/mL). PGE2 production in the enzyme reaction aliquot was measured using HTRF kit (Cisbio International, catalogue #62P2APEC). The solution free of test compound was used as positive control, and the solution free of test compound and microsome sample was used as negative control. 100% activity was defined as PGE2 production in the positive control minus PGE2 production in negative control. IC50 value was calculated by standard method.
A general note: TR-FRET usually uses a lanthanide donor and a delayed reading to cut background.

pIC50: −log10 of the molar value. Counter-ions that a name gives are not always drawn.

human mPGES-1, sequence (O14684 whole entry): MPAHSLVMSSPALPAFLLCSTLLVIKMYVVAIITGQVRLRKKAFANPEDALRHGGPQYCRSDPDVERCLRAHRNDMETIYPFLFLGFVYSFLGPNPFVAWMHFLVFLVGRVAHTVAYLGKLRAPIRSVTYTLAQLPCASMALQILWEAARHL

On to `COCc1nc2c(C(=O)Nc3ccccc3)cc(NC(=O)c3ccccc3C(F)(F)F)cc2[nH]1` [Example 214, 2-(Methoxymethyl)-N-phenyl-6-({[2-(trifluoromethyl)phenyl]carbonyl}amino)-1H-benzimidazole-4-carboxamide hydrochloride], for which the pIC50 was 7.22 with A549 cells and 8.28 on human mPGES-1.
On the same counts, the results for `COCc1nc2c(C(=O)Nc3ccc(OC)cc3)cc(NC(=O)c3ccccc3C(F)(F)F)cc2[nH]1` [Example 37, 2-(Methoxymethyl)-N-(4-methoxyphenyl)-6-({[2-(trifluoromethyl)phenyl]carbonyl}amino)-1H-benzimidazole-4-carboxamide] are 6.58 and 7.63.
Regarding `CNc1nc2c(C(=O)Nc3cccc(Cl)c3C)cc(NC(=O)c3ccccc3C(F)(F)F)cc2[nH]1` [Example 138, N-(3-Chloro-2-methylphenyl)-2-(methylamino)-6-({[2-(trifluoromethyl)phenyl]carbonyl}amino)-1H-benzimidazole-4-carboxamide hydrochloride], the pIC50 with A549 cells is 7.06; on human mPGES-1, 8.66.
On the same counts, the results for `Cc1c(Cl)cccc1NC(=O)c1cc(NC(=O)c2cc(Cl)ccc2Cl)cc2[nH]c(NCCOC(C)C)nc12` [Example 193, N-(3-Chloro-2-methylphenyl)-6-{[(2,5-dichlorophenyl)carbonyl]amino}-2-{[2-(propan-2-yloxy)ethyl]amino}-1H-benzimidazole-4-carboxamide hydrochloride] are 7.72 and 9.40.
For `COCc1nc2c(C(=O)Nc3cccc(Cl)c3C)cc(NC(=O)c3cccnc3Cl)cc2[nH]1` [Example 96, N-(3-Chloro-2-methylphenyl)-6-{[(2-chloropyridin-3-yl)carbonyl]amino}-2-(methoxymethyl)-1H-benzimidazole-4-carboxamide hydrochloride] the same measures were 6.90 and 7.47.
Consider `CC(=O)OCc1nc2c(C(=O)Nc3cccc(Cl)c3C)cc(NC(=O)c3ccccc3C(F)(F)F)cc2[nH]1` [Example 63, {4-[(3-Chloro-2-methylphenyl)carbamoyl]-6-({[2-(trifluoromethyl)phenyl]carbonyl}amino)-1H-benzimidazol-2-yl}methyl acetate], for which the pIC50 with A549 cells is 7.26; on human mPGES-1, 8.25.
On the same counts, the results for `COCc1nc2c(C(=O)Nc3cccc(Cl)c3C)cc(NC(=O)c3cc(C)ccc3C(F)(F)F)cc2[nH]1` [Example 109, N-(3-Chloro-2-methylphenyl)-2-(methoxymethyl)-6-({[5-methyl-2-(trifluoromethyl)phenyl]carbonyl}amino)-1H-benzimidazole-4-carboxamide hydrochloride] are 8.06 and 8.11.
For `COCc1nc2c(C(=O)Nc3cccc(Cl)c3C)cc(NC(=O)c3ccccc3C(F)(F)F)cc2[nH]1` [Example 11, N-(3-chloro-2-methylphenyl)-2-(methoxymethyl)-6-({[2-(trifluoromethyl)phenyl]carbonyl}amino)-1H-benzimidazole-4-carboxamide] the same measures were 7.89 and 8.18.
On the same counts, the results for `Cc1c(Cl)cccc1NC(=O)c1cc(NC(=O)c2ccccc2C(F)(F)F)cc2[nH]c(C(C)(C)CCl)nc12` [Example 57, N-(3-Chloro-2-methylphenyl)-2-(1-chloro-2-methylpropan-2-yl)-6-({[2-(trifluoromethyl)phenyl]carbonyl}amino)-1H-benzimidazole-4-carboxamide] are 7.77 and 9.30.
In the case of `Cc1ccc(NC(=O)c2cc(NC(=O)c3cc(Cl)ccc3Cl)cc3[nH]c(C(C)(C)C)nc23)cc1Cl` [Example 88, 2-tert-Butyl-N-(3-chloro-4-methylphenyl)-6-{[(2,5-dichlorophenyl)carbonyl]amino}-1H-benzimidazole-4-carboxamide hydrochloride], the negative-log IC50 (pIC50) in the experiment with A549 cells is 8.04; on human mPGES-1, 7.82.
For `CC(=O)N1CCC[C@H]1c1nc2c(C(=O)Nc3cccc(Cl)c3C)cc(NC(=O)c3ccccc3C(F)(F)F)cc2[nH]1` [Example 73, 2-[(2S)-1-Acetylpyrrolidin-2-yl]-N-(3-chloro-2-methylphenyl)-6-({[2-(trifluoromethyl)phenyl]carbonyl}amino)-1H-benzimidazole-4-carboxamide] the same measures were 7.12 and 7.73.
On the same counts, the results for `CSc1nc2c(C(=O)Nc3cccc(Cl)c3C)cc(NC(=O)c3ccccc3C(F)(F)F)cc2[nH]1` [Example 179, N-(3-Chloro-2-methylphenyl)-2-(methylsulfanyl)-6-({[2-(trifluoromethyl)phenyl]carbonyl}amino)-1H-benzimidazole-4-carboxamide] are 7.69 and 8.44.
For `CCCCOc1ccc(Cl)c(C(=O)Nc2cc(C(=O)Nc3cccc(Cl)c3C)c3nc(COC)[nH]c3c2)c1` [Example 247, 6-{[(5-Butoxy-2-chlorophenyl)carbonyl]amino}-N-(3-chloro-2-methylphenyl)-2-(methoxymethyl)-1H-benzimidazole-4-carboxamide hydrochloride] the same measures were 7.26 and 7.16.
Consider `CCOCCOc1ccc(Cl)c(C(=O)Nc2cc(C(=O)Nc3cccc(Cl)c3C)c3nc(COC)[nH]c3c2)c1` [Example 115, 6-({[2-Chloro-5-(2-ethoxyethoxy)phenyl]carbonyl}amino)-N-(3-chloro-2-methylphenyl)-2-(methoxymethyl)-1H-benzimidazole-4-carboxamide hydrochloride], for which the pIC50 was 7.43 in the experiment on A549 cells and 7.94 at human mPGES-1.
For `COCC(C)(C)CNc1nc2c(C(=O)Nc3cccc(Cl)c3C)cc(NC(=O)c3cc(Cl)ccc3Cl)cc2[nH]1` [Example 190, N-(3-Chloro-2-methylphenyl)-6-{[(2,5-dichlorophenyl)carbonyl]amino}-2-[(3-methoxy-2,2-dimethylpropyl)amino]-1H-benzimidazole-4-carboxamide hydrochloride] the same measures were 8.15 and 10.00.
For `O=C(Nc1cc(C(=O)NCc2ccccc2C(F)(F)F)c2nc([C@H]3CCCO3)[nH]c2c1)c1ccccc1C(F)(F)F` [Example 65, 2-[(2R)-Tetrahydrofuran-2-yl]-N-[2-(trifluoromethyl)benzyl]-6-({[2-(trifluoromethyl)phenyl]carbonyl}amino)-1H-benzimidazole-4-carboxamide] the same measures were 7.14 and 8.02.
For `Cc1c(Cl)cccc1NC(=O)c1cc(NC(=O)c2ccccc2C(F)(F)F)cc2[nH]c([C@@H]3CCCN3C)nc12` [Example 72, N-(3-Chloro-2-methylphenyl)-2-[(2S)-1-methylpyrrolidin-2-yl]-6-({[2-(trifluoromethyl)phenyl]carbonyl}amino)-1H-benzimidazole-4-carboxamide] the same measures were 7.22 and 8.01.
As for `COCc1nc2c(C(=O)NC3CCC(F)(F)CC3)cc(NC(=O)c3ccccc3C(F)(F)F)cc2[nH]1` [Example 26, N-(4,4-Difluorocyclohexyl)-2-(methoxymethyl)-6-({[2-(trifluoromethyl)phenyl]carbonyl}amino)-1H-benzimidazole-4-carboxamide hydrochloride], the values for the pIC50 with A549 cells and on human mPGES-1 were 6.06 and 6.77, respectively.
For `Cc1c(Cl)cccc1NC(=O)c1cc(NC(=O)c2ccccc2C(F)(F)F)cc2[nH]c(C(C)(C)C)nc12` [Example 76, 2-tert-Butyl-N-(3-chloro-2-methylphenyl)-6-({[2-(trifluoromethyl)phenyl]carbonyl}amino)-1H-benzimidazole-4-carboxamide hydrochloride] the same measures were 8.26 and 9.70.
On the same counts, the results for `Cc1c(Cl)cccc1NC(=O)c1cc(NC(=O)c2ccccc2C(F)(F)F)cc2[nH]c(N3CCC3)nc12` [Example 165, 2-(Azetidin-1-yl)-N-(3-chloro-2-methylphenyl)-6-({[2-(trifluoromethyl)phenyl]carbonyl}amino)-1H-benzimidazole-4-carboxamide hydrochloride] are 8.13 and 8.89.
For `COCc1nc2c(C(=O)Nc3cccc(Cl)c3CO)cc(NC(=O)c3ccccc3C(F)(F)F)cc2[nH]1` [Example 234, N-[3-Chloro-2-(hydroxymethyl)phenyl]-2-(methoxymethyl)-6-({[2-(trifluoromethyl)phenyl]carbonyl}amino)-1H-benzimidazole-4-carboxamide] the same measures were 6.70 and 7.01.

What is called pIC50 is the IC50 on a negative log10 scale, so that one unit is a factor of ten.

The values are drawn from US9216968B2, “Heterocyclic derivative and pharmaceutical drug” (NIPPON SHINYAKU CO., LTD., priority 2011, dated 2015).
